Patent US11878080B2, “Protein capsules” (Cambridge Enterprise Limited, priority 2014, dated 2024)
One block for each compound: values may come before it.

Key:
[1] = Release kinetics of insulin, glucagon and lysozyme from protein microgel capsules (washing with DDW pH 7); type: physicochemical; conditions: compared to insulin and lysozyme proteins
Method: The efficiency of microfluidic techniques for protein capsules synthesis was studied by calculating the percentage of protein participating in capsule formation following the fluorescent signal of labelled protein in residue solutions. After the preparation of the microgel capsules was accomplished and the resulting capsules were washed, in order to remove unreacted species, and the concentration of unreacted protein was calculated following UV absorption and fluorescent signal of each protein. In order to study the release kinetics of insulin, glucagon and lysozyme protein microgel shells, the loaded samples were washed with DDW pH=7 within following intervals of time: 10 min., 30 min., 1 h., 3 h., 8 h., 12 h., 24 h., 48 h., 3 d., 7 d. Each washing solution was than analysed by UV spectroscopy and fluorimeter and exact concentration of the released species was detected.
Finally, whether the aggregation nature of the protein structures influenced the release kinetics of the encapsulated proteins was studied. […] This effect is attributed to the slow aggregation process of glucagon protein in the protein assembly. However, for the multishell structures, the proteins which localise at the core of the microgels tend to dissociate (release) only after the proteins of the outer shell are released. […]

[2] = Release of encapsulated small molecules from capsules in fresh buffer (UV absorption of supernatant); type: physicochemical
Method: The release of the encapsulated species from the capsules was then studied. To this effect, the capsules were incubated in fresh buffer for an increasing period of time, removed the gels by centrifugation, and measured the concentration of released small molecules in the supernatant through their UV absorption. The results shown in FIG. 4 (d) reveal marked differences in the rate of release of the small molecules.
The loaded microgels were washed with 10 mM HCl at intervals of time from 10 min to 14 d. The solutes after each washing were analysed by UV spectroscopy.

Compound: glucagon: human glucagon (Gemini Bio-Products), protein assembled into and released from microgel capsules
release rate of protein from capsules [1]: much faster

time to maximum release rate ([2]; release from lysozyme capsules in fresh buffer): one
Compound: CC1(C)S[C@@H]2[C@H](NC(=O)COc3ccccc3)C(=O)N2[C@H]1C(=O)O [Penicillin V]

extent of release from capsules ([2]; after one week): not fully released
Compound: Cc1ccc2c(c1)sc(-c1ccc(N(C)C)cc1)[n+]2C.[Cl-] [ThT, Thioflavin T]
